The source of these data is patent US20120010161A1, “NOVEL AZAPEPTIDE OR AZAPEPTIDOMIMETIC COMPOUNDS INHIBITING BCRP AND/OR P-GP” (CENTRE NATIONAL DE LA RECHERCHE SCIENTIFIQUE, priority 2009, published 2012).

Data set [1] has as its target T1, BCRP/ABCG2 (Homo sapiens, UniProt Q9UNQ0).
T1 construct: expressed in transfected cells; host or cells: HEK-293 transfected with pcDNA3.1-ABCG2
T1 sequence (Q9UNQ0 1-655): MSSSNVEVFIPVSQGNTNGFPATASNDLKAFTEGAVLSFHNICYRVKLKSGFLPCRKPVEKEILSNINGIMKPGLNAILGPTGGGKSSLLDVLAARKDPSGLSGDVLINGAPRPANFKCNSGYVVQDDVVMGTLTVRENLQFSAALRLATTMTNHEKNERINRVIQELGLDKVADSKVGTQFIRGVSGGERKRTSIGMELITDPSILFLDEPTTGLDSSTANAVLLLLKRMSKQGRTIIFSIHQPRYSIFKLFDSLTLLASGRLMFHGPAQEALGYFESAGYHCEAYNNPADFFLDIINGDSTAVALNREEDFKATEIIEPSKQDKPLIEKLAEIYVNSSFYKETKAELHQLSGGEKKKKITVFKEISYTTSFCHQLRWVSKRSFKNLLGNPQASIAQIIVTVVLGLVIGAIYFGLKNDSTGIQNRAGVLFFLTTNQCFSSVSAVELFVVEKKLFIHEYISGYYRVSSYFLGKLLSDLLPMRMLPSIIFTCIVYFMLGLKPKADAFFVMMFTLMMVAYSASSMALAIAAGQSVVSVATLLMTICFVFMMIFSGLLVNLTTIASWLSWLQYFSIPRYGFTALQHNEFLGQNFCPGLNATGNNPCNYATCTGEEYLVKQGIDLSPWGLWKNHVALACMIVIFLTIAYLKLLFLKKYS
As to the kind of experiment: Flow cytometry: mitoxantrone efflux induced by ABCG2 in transfected HEK-293 cells. The data set is classed as cell-based. The note with it: for inhibition at 2 μM / inhibition at 10 μM: human, HEK-293 cells transfected with ABCG2 (vector pcDNA3.1), probe mitoxantrone (5 μM); for inhibition at 2 μM: 2 μM compound, read-out: BCRP/ABCG2 % efficacy 2 μM; for inhibition at 2 μM / inhibition at 10 μM / IC50 / BCRP/ABCG2 IC50, μM: mitoxantrone efflux, HEK-293 cells; for inhibition at 10 μM: 10 μM compound, three independent experiments, read-out: BCRP/ABCG2 % efficacy 10 μM. The source says:
(§1) Cell cultures. The human […] HEK-293 transfected with the vector pcDNA3.1 including or not the gene encoding ABCG2 (Robey, R. W., Honjo, Y., Morisaki, K., Nadjem, T. A., Runge, S., Risbood, M., Poruchynsky, M. S., Bates, S. E. 2003, Br. J. Cancer 89(10) 1971-1978) was used to test the efficacy of the products on ABCG2. The newborn hamster kidney cell line BHK21 either natural (negative control) or transfected with the vector pNUT-MRP/His expressing the gene encoding ABCC1 (Chang, Xiu-Bao, Hou, Yue-Xian, Riordan, John R. 1997, J. Biol. Chem. 272(49) 30962-30968) was used to test the efficacy of the products on ABCC1. The cell line NIH3T3 natural or transfected with the vector pHaMDR1/A expressing ABCB1 (Cardarelli, Carol O., Aksentijevich, Ivan, Pastan, Ira, Gottesman, Michael M. 1995 Cancer Res. 55 1086-1091) was used to test the efficacy of the compounds on ABCB1. The various cell types are cultured according to the protocols described previously (Robey, R. W., Honjo, Y., Morisaki, K., Nadjem, T. A., Runge, S., Risbood, M., Poruchynsky, M. S., Bates, S. E. 2003, Br. J. Cancer 89(10) 1971-1978 for the line HEK293, Chang, Xiu-Bao, Hou, Yue-Xian, Riordan, John R. 1997, J. Biol. Chem. 272(49) 30962-30968 for the line BHK21 and Cardarelli, Carol O., Aksentijevich, Ivan, Pastan, Ira, Gottesman, Michael M. 1995 Cancer Res. 55 1086-1091 for the line NIH3T3).
(§2) FIG. 1 schematically illustrates an efflux of substrate induced by a typical ABC transporter. The substrates S, such as mitoxantrone effluxed with ABCG2 and ABCB1 or daunorubicin effluxed with ABCC1, are accumulated in the cells and expelled by the transporter T, leading to a decrease in intracellular fluorescence. In the case of accumulation of the product, typically by inhibition of the efflux protein, the intracellular fluorescence increases.
Flow cytometry. Transfected or untransfected HEK-293 and BHK-21 cells are in a first stage placed in contact with substrate (5 μM mitoxantrone or 1 μM daunorubicin depending on the transporter). The substrate is accumulated for 30 minutes at 37° C. in the presence or absence of varied concentrations of the test molecules, at 0.5% of DMSO final. After washing with PBS, the cells are incubated in medium containing the same concentrations of test molecules as previously, for 1 hour at 37° C. The drug intracellular fluorescence is measured with a FACscan flow cytometer (Becton Dickinson, Mountain View, Calif.). The fluorescent substrates are excited at 488 nm; the fluorescence emission of mitoxantrone (MTX) is measured at 650 nm and that of daunorubicin is measured at 530 nm. The efficacy of the test molecules is estimated by means of equation 1:
% efficacy=100×(FA−FBG)/(FC−FBG),
in which: • FA corresponds to the intracellular level of substrate measured in the cells overexpressing the transporter T (corresponding to the lowest level of fluorescence in the absence of inhibitor), • FC corresponds to the fluorescence in the control cells not expressing the test transporter. This is thus the maximum accumulation of substrate in the cells), • FBG corresponds to the fluorescence measured in the absence of substrate and in the presence of inhibitor.
The compounds presented in TABLES 2 to 5 were tested by flow cytometry on mammalian cell lines selectively expressing the efflux proteins ABCG2, ABCB1 or ABCC1, as described previously.
The mitoxantrone efflux induced by ABCG2 or ABCB1 and the daunorubicin efflux induced by ABCC1 are estimated by flow cytometry, as described previously, at 10 μM of each test compound, and then at 2 μM for the compounds showing at least 80% efficacy at 10 μM. The concentration inducing 50% inhibition (IC50) was estimated for the most efficient aza derivatives. The values are obtained by three independent experiments and were adjusted using the SigmaPlot software.
Background: A flow cytometer gives signals particle by particle.

The target of data set [2] is T2, MRP1/ABCC1 (Homo sapiens, UniProt P33527).
T2 construct: His; expressed in transfected cells; host or cells: BHK21 (newborn hamster kidney) transfected with pNUT-MRP/His
As to the kind of experiment: Flow cytometry: daunorubicin efflux induced by ABCC1 in transfected BHK21 cells. Type of data set: cell-based. The note with it: probe daunorubicin (1 μM), 10 μM compound, read-out: MRP1/ABCC1 % efficacy 10 μM.
Text: as §1, with “The various cell types are cultured according to the protocols described previously (Robey, R. W., Honjo, Y., Morisaki, K., Nadjem, T. A., Runge, S., Risbood, M., Poruchynsky, M. S., Bates, S. E. 2003, Br. J. Cancer 89(10) 1971-1978 for the line HEK293, Chang, Xiu-Bao, Hou, Yue-Xian, Riordan, John R. 1997, J. Biol. Chem. 272(49) 30962-30968 for the line BHK21 and Cardarelli, Carol O., Aksentijevich, Ivan, Pastan, Ira, Gottesman, Michael M. 1995 Cancer Res. 55 1086-1091 for the line NIH3T3).” left out
as §2
Flow cytometry. […] The drug intracellular fluorescence is measured with a FACscan flow cytometer (Becton Dickinson, Mountain View, Calif.). The fluorescent substrates are excited at 488 nm; the fluorescence emission of mitoxantrone (MTX) is measured at 650 nm and that of daunorubicin is measured at 530 nm. […]
in which: • FA corresponds to the intracellular level of substrate measured in the cells overexpressing the transporter T (corresponding to the lowest level of fluorescence in the absence of inhibitor), • FC corresponds to the fluorescence in the control cells not expressing the test transporter. […]

“And” between values parts separate entries of the source, which are not always exact repeats. Identical values can stand only once.

T2 sequence (P33527 whole entry): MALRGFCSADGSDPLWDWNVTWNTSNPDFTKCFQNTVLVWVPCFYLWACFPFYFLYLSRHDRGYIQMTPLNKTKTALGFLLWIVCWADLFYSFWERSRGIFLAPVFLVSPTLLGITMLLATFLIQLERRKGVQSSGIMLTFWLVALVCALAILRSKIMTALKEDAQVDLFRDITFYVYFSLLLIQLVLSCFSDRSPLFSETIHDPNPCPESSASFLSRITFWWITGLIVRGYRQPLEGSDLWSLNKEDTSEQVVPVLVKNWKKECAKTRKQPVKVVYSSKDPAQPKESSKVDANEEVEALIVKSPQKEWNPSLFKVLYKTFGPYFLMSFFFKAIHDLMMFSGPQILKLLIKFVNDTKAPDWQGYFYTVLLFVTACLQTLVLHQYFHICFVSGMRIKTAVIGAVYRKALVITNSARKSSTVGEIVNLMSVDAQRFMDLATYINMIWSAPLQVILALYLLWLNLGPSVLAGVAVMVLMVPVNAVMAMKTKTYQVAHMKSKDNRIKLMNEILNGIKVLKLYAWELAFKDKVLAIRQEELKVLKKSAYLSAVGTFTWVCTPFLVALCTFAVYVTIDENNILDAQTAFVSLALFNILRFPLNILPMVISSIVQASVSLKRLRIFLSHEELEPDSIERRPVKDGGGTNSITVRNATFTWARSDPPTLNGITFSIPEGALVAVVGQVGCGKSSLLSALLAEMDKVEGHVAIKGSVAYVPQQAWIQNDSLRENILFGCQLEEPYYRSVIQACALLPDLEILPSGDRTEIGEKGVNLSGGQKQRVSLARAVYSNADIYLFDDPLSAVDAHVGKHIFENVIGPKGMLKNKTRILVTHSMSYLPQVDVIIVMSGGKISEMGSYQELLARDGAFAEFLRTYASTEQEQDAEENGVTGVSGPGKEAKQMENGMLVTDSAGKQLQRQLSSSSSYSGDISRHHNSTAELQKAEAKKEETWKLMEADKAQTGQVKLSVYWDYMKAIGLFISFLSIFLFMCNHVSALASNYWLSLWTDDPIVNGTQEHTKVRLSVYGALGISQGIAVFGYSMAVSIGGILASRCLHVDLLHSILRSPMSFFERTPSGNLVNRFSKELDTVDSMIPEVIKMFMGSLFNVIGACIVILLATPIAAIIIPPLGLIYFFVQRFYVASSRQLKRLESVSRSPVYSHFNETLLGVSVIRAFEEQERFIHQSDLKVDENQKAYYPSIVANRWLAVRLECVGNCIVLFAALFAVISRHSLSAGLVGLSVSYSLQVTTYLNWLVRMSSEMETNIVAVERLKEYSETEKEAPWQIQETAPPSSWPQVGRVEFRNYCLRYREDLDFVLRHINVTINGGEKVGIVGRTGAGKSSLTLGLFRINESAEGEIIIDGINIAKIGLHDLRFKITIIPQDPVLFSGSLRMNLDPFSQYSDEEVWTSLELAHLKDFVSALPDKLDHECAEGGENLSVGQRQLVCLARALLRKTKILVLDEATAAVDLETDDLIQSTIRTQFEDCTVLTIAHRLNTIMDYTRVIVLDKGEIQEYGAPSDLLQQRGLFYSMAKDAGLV

Broadly, the IC50 is the concentration at which inhibition is half-maximal. A lower IC50 goes with greater potency. For `CC(C)(C)OC(=O)NN(C(=O)N[C@@H](CCCCNC(=O)OCc1ccccc1)C(=O)OC(C)(C)C)c1ccccc1C(=O)OCc1ccccc1` [IA.1, tert-Butyl ester of (2S)-6-(benzyloxycarbonylamino)-2-[1-(2′-(benzyloxycarbonyl)phenyl)-2-(tert-butoxycarbonyl)hydrazino-carbonylamino]hexanoic acid], in data set [1], the inhibition at 2 μM was 53 ± 10%, the inhibition at 10 μM came to 112 ± 6% and it took 2000 nM to reach half-maximal inhibition (IC50). In addition, the inhibition at 10 μM in data set [2] turned out to be 14 ± 3%.
As to `CC(C)(C)OC(=O)NN(C(=O)N[C@@H](CCCCNC(=O)OCc1ccccc1)C(=O)OC(C)(C)C)c1cccc(C(=O)OCc2ccccc2)c1` [IA.2, tert-Butyl ester of (2S)-6-(benzyloxycarbonylamino)-2-[1-(3′-(benzyloxycarbonyl)phenyl)-2-(tert-butoxycarbonyl)hydrazino-carbonylamino]hexanoic acid], the “selectivity toward one or other of the proteins BCRP or P-gp” value in data set [1] (BCRP versus P-gp) is listed as “selective”. For the same molecule, in data set [1], the inhibition at 2 μM amounted to 86 ± 14%; the inhibition at 10 μM came out at 112 ± 26%; the IC50 was 1000 nM and 1060 nM. Further, in data set [2], the inhibition at 10 μM was 5 ± 1%.
For the molecule `CC(C)(C)OC(=O)N[C@H](CNN(CCCCCCNC(=O)OCc1ccccc1)C(=O)OC(C)(C)C)CC(=O)OCc1ccccc1` [IB.1, Benzyl ester of (3S)-4-[2-(6-benzyloxycarbonylaminohexyl)-2-tert-butoxycarbonylhydrazino]-3-tert-butoxycarbonylaminobutyric acid], in data set [1], the inhibition at 2 μM amounted to 72 ± 1%; the inhibition at 10 μM was found to be 87 ± 27%; the “BCRP/ABCG2 IC50, μM” value is listed as “micromolar or submicromolar”; 900 ± 50 nM corresponded to half-maximal inhibition (IC50). For the same molecule, in data set [2], the inhibition at 10 μM was 5 ± 1%.
As to `CC(C)(C)OC(=O)N[C@H](CNN(CCCCCCNC(=O)OCc1ccccc1)C(=O)OCc1ccccc1)CC(=O)OCc1ccccc1` [IB.11, Benzyl ester of (3S)-4-[2-benzyloxycarbonyl-2-(6-benzyloxycarbonylaminohexyl)hydrazino]-3-tert-butoxycarbonyl-aminobutyric acid], in data set [1], the inhibition at 2 μM amounted to 92 ± 2%; the inhibition at 10 μM came out at 104 ± 10%; the “BCRP/ABCG2 IC50, μM” value was “micromolar or submicromolar”; 500 ± 50 nM corresponded to half-maximal inhibition (IC50).
